Test results published in US20260325538A1, “THERAPY” (priority 2023, published 2026).

Tests used:
[1] = test system: gram-negative bacteria with MBL, for example Klebsiella pneumoniae, E. coli and Pseudomonas aeruginosa; details: meropenem used alone; cited from earlier work
MBL-producers = details: in combination with cefepime; cited from earlier work
MBL class IMP = details: in combination with cefepime; cited from earlier work
[2] = test system: Klebsiella pneumoniae Kpn St147 (NDM-1 and KPC-2); assay: MIC determination of cefepime with zinc chelator and avibactam (checkerboard, broth microdilution); assay type: cell-based; details: with FEP and zinc chelator
Experimental: (§1) Antimicrobial susceptibility testing (AST) by broth microdilution was performed according to The European Committee on Antimicrobial Susceptibility Testing. Reading guide for broth microdilution. Version 4.0, 2022 (see: http://www.eucast.org).
(§2) Checkerboard 96-well plates (Corning 3788) were made by conducting serial two-fold dilutions of cefepime in cation-adjusted Mueller Hinton II broth (caMHB; Thermo Scientific, T3462), in columns across the microtiter plate (64-0.03 μg/ml). Additionally, avibactam was added to rows 3 to 8 in concentrations of 64, 16, 8, 4, 1 and 0.25 μg/ml, respectively. The zinc chelator was added to the wells of the plate, where applicable. Three plates were made per experiment, one without the zinc chelator (plate 1), one with 16 μg/ml of the zinc chelator (plate 2) and one with 32 μg/ml of the zinc chelator (plate 3). The first row in all plates was used as a positive control for cefepime only, and the second row included the zinc chelator in addition to cefepime (no avibactam added to rows 1 or 2). The zinc chelator was added at the indicated concentration, to rows 3-8 of plates 2 and 3.
(§3) The effect of the combination of zinc chelator/FEP/avibactam was tested on a clinically isolated Klebsiella pneumoniae Kpn St147 actively constitutionally expressing the two resistance mechanisms NDM-1 and KPC-2 simultaneously. As a negative control, bacteria+FEP was tested alone. As a positive control, bacteria+FEP+zinc chelator was used. In Tables 1 and 2, concentrations (μg/ml) of FEP are given in the top row left to right and avibactam concentrations (μg/ml) are given top to bottom in column 1.
(§4) The fractional inhibitory concentration (FIC) is defined as the concentration that kills when used in combination with another agent divided by the concentration that has the same effect when used alone. The FIC index (FICI) for the combination of two agents is the sum of their individual FIC values. […] The European Committee for Antimicrobial Susceptibility Testing (EUCAST) of the European Society of Clinical Microbiology and Infectious Diseases (ESCMID) 2000 adopts the following definitions to determine the susceptibility of bacteria to an antimicrobial agent (see EUCAST Definitive Document E. Def 1.2: Terminology relating to methods for the determination of susceptibility of bacteria to antimicrobial agents. Clin. Microbiol. Infect. 2000; 6(9): 503-508): • FICI value≤0.5; synergy • 0.5<FICI value≤1; additive effect • 1<FICI value≤2; indifferent effect • FICI≥2; antagonistic effect
To test for synergy, all data were subjected to the following formula in which A=zinc chelator; B=cefepime; and C=avibactam:
(§5) ΣFICI=MICA(combination)/MICA (alone)+MICB(combination)/MICB (alone)+MICC(combination)/MICC (alone)

[3] = test system: Klebsiella pneumoniae Kpn St147 (NDM-1 and KPC-2); assay: MIC determination of ceftazidime with zinc chelator and avibactam (checkerboard, broth microdilution); assay type: cell-based; details: with CAZ and zinc chelator
Description: as §4, §1
as §2, with “CAZ” for “cefepime”, “Three plates were made per experiment, one without the zinc chelator (plate 1), one with 16 μg/ml of the zinc chelator (plate 2) and one with 32 μg/ml of the zinc chelator (plate 3).” left out, “concentration” for “concentration,”
as §3, with “zinc chelator/CAZ/avibactam” for “zinc chelator/FEP/avibactam”, “control, bacteria+CAZ” for “control, bacteria+FEP”, “control, bacteria+CAZ+zinc” for “control, bacteria+FEP+zinc”, “Tables 3” for “Tables 1”, “and 4,” for “and 2,”, “of CAZ” for “of FEP”
as §5

NDM = details: cited from earlier work

C[C@@H](O)[C@H]1C(=O)N2C(C(=O)O)=C(S[C@@H]3CN[C@H](C(=O)N(C)C)C3)[C@H](C)[C@H]12 [meropenem]
sensitivity of gram-negative bacteria with MBL [1]: resistant to the antibiotic

NCCN[C@H]1CC[C@H](CC(=O)N[C@H]2Cc3cccc(C(=O)O)c3OB2O)CC1 [taniborbactam]
activity against MBL-producers (MBL-producers): potent activity
effect against MBL class IMP (MBL class IMP): no effect

NC(=O)[C@@H]1CC[C@@H]2CN1C(=O)N2OS(=O)(=O)O [Avibactam, avibactam]
FICI Avibactam ([2]; avibactam 0.25 μg/mL): 0.0001
FICI Avibactam ([2]; avibactam 1 μg/mL): 0.0005
FICI Avibactam ([2]; avibactam 4 μg/mL): 0.0020
FICI Avibactam ([2]; avibactam 8 μg/mL): 0.0039
FICI Avibactam ([2]; avibactam 16 μg/mL): 0.0078
FICI Avibactam ([3]; avibactam 0.25 μg/mL): 0.0001
FICI Avibactam ([3]; avibactam 1 μg/mL): 0.0005
FICI Avibactam ([3]; avibactam 4 μg/mL): 0.0020
FICI Avibactam ([3]; avibactam 8 μg/mL): 0.0039
FICI Avibactam ([3]; avibactam 16 μg/mL): 0.0078

N[C@@H](CN[C@@H](CN[C@@H](CC(=O)O)C(=O)O)C(=O)O)C(=O)O [aspergillomarasmine A]
in vivo activity (NDM; mouse models): shown in vivo activity in mouse models
doses required to reverse carbapenem resistance (NDM; mouse, in vivo): relatively high doses
